Experimental data as given in US8192962B2, “Processes for detecting toxic substances” (Daikin Industries, Ltd., priority 2001, dated 2012).

Tested on: Energy system protein genes
Experiment: DNA chip mRNA expression in yeast, energy system protein genes (Table 4)
Assay type: cell-based, Saccharomyces cerevisiae S288C
Outline: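 In this screen, yeast in logarithmic growth are challenged for two hours with a toxic substance at a non-lethal inhibitory concentration. Their mRNA, converted to Cy3- or Cy5-labeled cDNA, hybridizes at 65° C. to a chip spanning every yeast gene, and expression is expressed as a ratio to untreated cells.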

For `N#Cc1c(Cl)c(Cl)c(Cl)c(C#N)c1Cl` [(9), 2,4,5,6-tetrachloro-1,3-benzenedicarbonitrile], the “The level of expressed mRNA in the presence of chemical substance/The level of expressed mRNA in the absence of chemical substance” value (yeast gene YJL121C, cells incubated two hours with the chemical substance) was 0.1, the “The level of expressed mRNA in the presence of chemical substance/The level of expressed mRNA in the absence of chemical substance” value (yeast gene YJL166W, cells incubated two hours with the chemical substance) was 1.3 and the “The level of expressed mRNA in the presence of chemical substance/The level of expressed mRNA in the absence of chemical substance” value (yeast gene YJL216C, cells incubated two hours with the chemical substance) was 1.5. The “The level of expressed mRNA in the presence of chemical substance/The level of expressed mRNA in the absence of chemical substance” value (yeast gene YJR009C) was 1.1, the “The level of expressed mRNA in the presence of chemical substance/The level of expressed mRNA in the absence of chemical substance” value (yeast gene YJR048W) was 0.5 and the “The level of expressed mRNA in the presence of chemical substance/The level of expressed mRNA in the absence of chemical substance” value (yeast gene YJR121W, cells incubated two hours with the chemical substance) was 0.8. The “The level of expressed mRNA in the presence of chemical substance/The level of expressed mRNA in the absence of chemical substance” value (yeast gene YJR155W) was 38.2, the “The level of expressed mRNA in the presence of chemical substance/The level of expressed mRNA in the absence of chemical substance” value (yeast gene YKL016C, cells incubated two hours with the chemical substance) was 1.3 and the “The level of expressed mRNA in the presence of chemical substance/The level of expressed mRNA in the absence of chemical substance” value (yeast gene YKL060C, cells incubated two hours with the chemical substance) was 0.3. The “The level of expressed mRNA in the presence of chemical substance/The level of expressed mRNA in the absence of chemical substance” value (yeast gene YKL141W, cells incubated two hours with the chemical substance) was 0.8, the “The level of expressed mRNA in the presence of chemical substance/The level of expressed mRNA in the absence of chemical substance” value (yeast gene YKL148C, cells incubated two hours with the chemical substance) was 1.7 and the “The level of expressed mRNA in the presence of chemical substance/The level of expressed mRNA in the absence of chemical substance” value (yeast gene YKL150W) was 1.1. For the same molecule, the “The level of expressed mRNA in the presence of chemical substance/The level of expressed mRNA in the absence of chemical substance” value (yeast gene YKR009C, cells incubated two hours with the chemical substance) was 2.4, the “The level of expressed mRNA in the presence of chemical substance/The level of expressed mRNA in the absence of chemical substance” value (yeast gene YKR058W, cells incubated two hours with the chemical substance, 25° C., YPD medium) was 1.3 and the “The level of expressed mRNA in the presence of chemical substance/The level of expressed mRNA in the absence of chemical substance” value (yeast gene YKR097W) was 1.9. For the same molecule, the “The level of expressed mRNA in the presence of chemical substance/The level of expressed mRNA in the absence of chemical substance” value (yeast gene YLL041C, cells incubated two hours with the chemical substance) was 0.7, the “The level of expressed mRNA in the presence of chemical substance/The level of expressed mRNA in the absence of chemical substance” value (yeast gene YLR038C, cells incubated two hours with the chemical substance) was 0.4 and the “The level of expressed mRNA in the presence of chemical substance/The level of expressed mRNA in the absence of chemical substance” value (yeast gene YLR134W, cells incubated two hours with the chemical substance) was 0.1. The “The level of expressed mRNA in the presence of chemical substance/The level of expressed mRNA in the absence of chemical substance” value (yeast gene YLR258W, cells incubated two hours with the chemical substance) was 0.8, the “The level of expressed mRNA in the presence of chemical substance/The level of expressed mRNA in the absence of chemical substance” value (yeast gene YLR284C, cells incubated two hours with the chemical substance) was 0.9 and the “The level of expressed mRNA in the presence of chemical substance/The level of expressed mRNA in the absence of chemical substance” value (yeast gene YLR295C, cells incubated two hours with the chemical substance, 25° C., YPD medium) was 1.4. The “The level of expressed mRNA in the presence of chemical substance/The level of expressed mRNA in the absence of chemical substance” value (yeast gene YLR304C, cells incubated two hours with the chemical substance) was 0.1, the “The level of expressed mRNA in the presence of chemical substance/The level of expressed mRNA in the absence of chemical substance” value (yeast gene YLR345W) was 4.5 and the “The level of expressed mRNA in the presence of chemical substance/The level of expressed mRNA in the absence of chemical substance” value (yeast gene YLR354C, cells incubated two hours with the chemical substance) was 0.4. For the same molecule, the “The level of expressed mRNA in the presence of chemical substance/The level of expressed mRNA in the absence of chemical substance” value (yeast gene YLR377C, cells incubated two hours with the chemical substance) was 1.8, the “The level of expressed mRNA in the presence of chemical substance/The level of expressed mRNA in the absence of chemical substance” value (yeast gene YLR395C, cells incubated two hours with the chemical substance) was 1.0 and the “The level of expressed mRNA in the presence of chemical substance/The level of expressed mRNA in the absence of chemical substance” value (yeast gene YML087C) was 1.9. The “The level of expressed mRNA in the presence of chemical substance/The level of expressed mRNA in the absence of chemical substance” value (yeast gene YML120C, cells incubated two hours with the chemical substance) was 1.3, the “The level of expressed mRNA in the presence of chemical substance/The level of expressed mRNA in the absence of chemical substance” value (yeast gene YML129C, cells incubated two hours with the chemical substance) was 1.4 and the “The level of expressed mRNA in the presence of chemical substance/The level of expressed mRNA in the absence of chemical substance” value (yeast gene YMR073C, cells incubated two hours with the chemical substance) was 1.2. The “The level of expressed mRNA in the presence of chemical substance/The level of expressed mRNA in the absence of chemical substance” value (yeast gene YMR118C) was 9.3, the “The level of expressed mRNA in the presence of chemical substance/The level of expressed mRNA in the absence of chemical substance” value (yeast gene YMR205C, cells incubated two hours with the chemical substance) was 0.3 and the “The level of expressed mRNA in the presence of chemical substance/The level of expressed mRNA in the absence of chemical substance” value (yeast gene YMR261C, cells incubated two hours with the chemical substance) was 1.6. The “The level of expressed mRNA in the presence of chemical substance/The level of expressed mRNA in the absence of chemical substance” value (yeast gene YMR267W, cells incubated two hours with the chemical substance, 25° C., YPD medium) was 0.4, the “The level of expressed mRNA in the presence of chemical substance/The level of expressed mRNA in the absence of chemical substance” value (yeast gene YMR323W, cells incubated two hours with the chemical substance) was 0.5 and the “The level of expressed mRNA in the presence of chemical substance/The level of expressed mRNA in the absence of chemical substance” value (yeast gene YNL071W) was 1.1. The “The level of expressed mRNA in the presence of chemical substance/The level of expressed mRNA in the absence of chemical substance” value (yeast gene YNL202W, cells incubated two hours with the chemical substance) was 1.3, the “The level of expressed mRNA in the presence of chemical substance/The level of expressed mRNA in the absence of chemical substance” value (yeast gene YNL241C) was 3.4 and the “The level of expressed mRNA in the presence of chemical substance/The level of expressed mRNA in the absence of chemical substance” value (yeast gene YNL331C) was 42.6. For the same molecule, the “The level of expressed mRNA in the presence of chemical substance/The level of expressed mRNA in the absence of chemical substance” value (yeast gene YOL086C, cells incubated two hours with the chemical substance) was 0.1, the “The level of expressed mRNA in the presence of chemical substance/The level of expressed mRNA in the absence of chemical substance” value (yeast gene YOL165C) was 46.9 and the “The level of expressed mRNA in the presence of chemical substance/The level of expressed mRNA in the absence of chemical substance” value (yeast gene YOR142W, cells incubated two hours with the chemical substance) was 1.1. For the same molecule, the “The level of expressed mRNA in the presence of chemical substance/The level of expressed mRNA in the absence of chemical substance” value (yeast gene YOR178C, cells incubated two hours with the chemical substance) was 0.2, the “The level of expressed mRNA in the presence of chemical substance/The level of expressed mRNA in the absence of chemical substance” value (yeast gene YOR388C, cells incubated two hours with the chemical substance) was 0.1 and the “The level of expressed mRNA in the presence of chemical substance/The level of expressed mRNA in the absence of chemical substance” value (yeast gene YPL031C, cells incubated two hours with the chemical substance) was 5.7. For the same molecule, the “The level of expressed mRNA in the presence of chemical substance/The level of expressed mRNA in the absence of chemical substance” value (yeast gene YPL061W, cells incubated two hours with the chemical substance) was 1.3, the “The level of expressed mRNA in the presence of chemical substance/The level of expressed mRNA in the absence of chemical substance” value (yeast gene YPL088W) was 0.6 and the “The level of expressed mRNA in the presence of chemical substance/The level of expressed mRNA in the absence of chemical substance” value (yeast gene YPL171C) was 60.0. For the same molecule, the “The level of expressed mRNA in the presence of chemical substance/The level of expressed mRNA in the absence of chemical substance” value (yeast gene YPL240C) was 3.5, the “The level of expressed mRNA in the presence of chemical substance/The level of expressed mRNA in the absence of chemical substance” value (yeast gene YPL262W, cells incubated two hours with the chemical substance) was 1.4 and the “The level of expressed mRNA in the presence of chemical substance/The level of expressed mRNA in the absence of chemical substance” value (yeast gene YPL275W, cells incubated two hours with the chemical substance) was 0.2. For the same molecule, the “The level of expressed mRNA in the presence of chemical substance/The level of expressed mRNA in the absence of chemical substance” value (yeast gene YPR048W, cells incubated two hours with the chemical substance) was 4.0 and the “The level of expressed mRNA in the presence of chemical substance/The level of expressed mRNA in the absence of chemical substance” value (yeast gene YPR184W, cells incubated two hours with the chemical substance) was 1.9.
